Source: US4877807A, “5-phenyl-1,2,3a,4,5,9b-hexahydro-3H-benz(e)indotes preparation and use thereof as drugs” (BASF Aktiengesellschaft, priority 1987, dated 1989)
Counter-ions that a name gives are not always drawn.

Columns and labels:
[1] = test system: reserpine-inducd hypothermia in male mice (NMRI strain); experiment: Inhibition of reserpine-induced hypothermia in mice (antidepressive action); type: in vivo; conditions: oral; for effectiveness higher than that of imipramine, factor: ED 50 relative to imipramine; for ED50: Mus musculus, 60 minutes before reserpine 2.15 mg/kg s.c., dose inhibiting reserpine-induced hypothermia by 50%, read-out: Antidepressive action ED 50
Protocol: The antidepressive activity of the substances according to the invention was studied using the following model:
Antidepressant substances inhibit this hypothermic effect, the degree of inhibition depending on the dose. The test substances were administered orally 60 minutes before the reserpine was administered.
The dose which inhibits reserpine-inducd hypothermia by 50%, ie. ED 50, is determined from the linear regression between log dose (mg/kg) and the relative decrease in the hypothermic effect.

[2] = test system: tonic spasms induced by electroshock in female mice (NMRI strain); experiment: Inhibition of electroshock-induced tonic spasms in mice (anticonvulsive action); type: in vivo; conditions: oral; for ED50: Mus musculus, 1 h, 60 minutes before electroshock, dose inhibiting tonic spasms in 50% of the animals, n/dose=8, read-out: Anticonvulsive action ED 50
Protocol: The anticonvulsive action was measured on female mice (NMRI strain) having a weight of 22-26 g. Tonic spasms were induced by electroshock via ear electrodes. Stimulus data: a series of square-wave pulses 4.64 ms in duration and 14.7 mA in amplitude; frequency 100 Hz; duration of series 0.2 sec.
The electroshock was administered 60 minutes after the oral administration of the test compounds, and the appearance of tonic spasms was counted. n/dose=8. The ratios between the effectiveness (% protected animals) and log dose were calculated by probit analysis. ED 50 is the dose which inhibits the tonic spsms in 50% of the animals.

For `CN1CC[C@@H]2c3ccccc3[C@H](c3ccccc3)C[C@@H]21` (relative stereo) [Example 1, (±)-3aS(R),5S(R),9bR(S)-3-Methyl-5-phenyl-1,2,3a,4,5,9b-hexahydro-3H -benz[e]indole hydrochloride], the “effectiveness higher than that of imipramine, factor” value [1] was “about 45”, the ED50 [1] was 0.082 mg/kg and the ED50 [2] was 1.1 mg/kg. The “anticonvulsive effectiveness compared with phenytoin (in words)” value [2] was “equalled or substantially exceeded”.
With `CN1CC[C@H]2c3ccccc3[C@H](c3ccccc3)C[C@@H]21` (relative stereo) [Example 2, (±)-3aR(S),5R(S),9bR(S)-3-Methyl-5-phenyl-1,2,3a,4,5,9b-hexahydro-3H-benz[e]indole] the ED50 [1] was 5.01 mg/kg.
For `CCN1CC[C@@H]2c3ccccc3[C@H](c3ccccc3)C[C@@H]21` (relative stereo) [Example 5, (±)-3aS(R),5S(R),9bR(S)-3-ethyl-5-phenyl-1,2,3a,4,5,9b-hexahydro-3H-benz[e]indole hydrochloride], the ED50 [1] was 0.14 mg/kg and the ED50 [2] was about 100 mg/kg.
With `CCN1CC[C@H]2c3ccccc3[C@H](c3ccccc3)C[C@@H]21` (relative stereo) [Example 6, (±)-3aR(S),5R(S),9bR(S)-3-Ethyl-5-phenyl-1,2,3a,4,5,9b-hexahydro-3H-benz[e]indole hydrochloride] the ED50 [1] was 1.61 mg/kg, the ED50 [2] was 8.81 mg/kg and the “anticonvulsive effectiveness compared with phenytoin (in words)” value [2] was “equalled or substantially exceeded”.
For `CCCN1CC[C@@H]2c3ccccc3[C@H](c3ccccc3)C[C@@H]21` (relative stereo) [Example 7, (±)-3aS(R),5S(R),9bR(S)-3-n-propyl-5-phenyl-1,2,3a,4,5,9b-hexahydro-3H-benz[e]indole hydrochloride], the ED50 [1] was 0.26 mg/kg and the ED50 [2] was 11.9 mg/kg.
`CN1CC[C@@H]2c3ccccc3[C@H](c3ccccc3)C[C@@H]21` [Example 4, (+)-3aS,5S,9bR-3-Methyl-5-phenyl-1,2,3a,4,5,9b-hexahydro-3H-benzo[e]indole] was tested, and the “effectiveness higher than that of imipramine, factor” value [1] was “about 45”, the ED50 [1] was 0.087 mg/kg and the ED50 [2] was about 46.4 mg/kg.
`CN(C)CCCN1c2ccccc2CCc2ccccc21` [imipramine, reference compound] gave an ED50 [1] of 3.82 mg/kg.
With `O=C1NC(=O)C(c2ccccc2)(c2ccccc2)N1` [phenytoin, reference compound] the ED50 [2] was 14.3 mg/kg.
